The source made the active and inactive calls. No cut-off for these calls is given here.
Tests used:
[1] = Volume of distribution at steady state in rat at 5 mg/kg, po or 1 mg/kg, iv measured upto 10 hrs; type: ADME, organism-based; conditions: in vivo
[2] = target: T1, Cytochrome P450 3A4 (Homo sapiens, UniProt P08684); assay: Inhibition of CYP3A4 (unknown origin) in presence of NADPH; type: ADME
[3] = Microsomal stability in rat liver microsome assessed as half life; type: ADME; conditions: liver microsomes
[4] = test system: Mus musculus; assay: In vivo activation of AMPK in C57BL/6J mouse assessed as increase ACC substrate level in liver at 10 mg/kg, po measured for 30 mins by Western blot analysis; type: functional, organism-based
[5] = test system: HepG2; assay: Inhibition of mitochondrial function in human HepG2 cells assessed as reduction in ATP production; type: functional, cell-based
[6] = target: 5'-AMP-activated protein kinase; assay: Activation of AMPK in mouse C2C12 cells incubated for 2 hrs; type: cell-based
[7] = test system: Mus musculus; assay: Antidiabetic activity against po dosed db/db mouse model of type 2 diabetes assessed as improvement in glucose handling administered for 15 days and measured on day 13 by OGTT test; type: functional, organism-based; conditions: dose 10-15 mg/kg, time 13.0 day
[8] = test system: Mus musculus; assay: Antidiabetic activity against db/db mouse model of type 2 diabetes assessed as reduction in blood glucose AUC at 15 mg/kg, po administered for 15 days and measured on day 13 by OGTT test; type: functional, organism-based; conditions: time 13.0 day
[9] = test system: Mus musculus; assay: In vivo activation of AMPK in C57BL/6J mouse assessed as increase in AMPK phosphorylation in liver at 10 mg/kg, po measured for 30 mins by Western blot analysis; type: functional, organism-based
[10] = test system: A549; assay: Cytotoxicity against human A549 cells assessed as reduction in cell growth; type: functional, cell-based
[11] = Clearance in rat; type: ADME; conditions: in vivo
[12] = test system: Mus musculus; assay: Antidiabetic activity against po dosed db/db mouse model of type 2 diabetes assessed as reduction in insulin level administered for 15 days by OGTT test; type: functional, organism-based; conditions: dose 10-15 mg/kg, time 15.0 day
[13] = AUC in rat at 5 mg/kg, po measured upto 10 hrs; type: ADME, organism-based; parameters: time < 10 hrs, dose 5 mg/kg, route po; conditions: in vivo
[14] = test system: NCI-H1299; assay: Cytotoxicity against human NCI-H1299 cells assessed as reduction in cell growth; type: functional, cell-based
[15] = Activation of AMPK in human HepG2 cells incubated for 2 hrs; type: cell-based; conditions: HepG2, 2 h
[16] = target: T1, Cytochrome P450 3A4; assay: Inhibition of CYP3A4 (unknown origin); type: ADME
[17] = Oral bioavailability in rat at 5 mg/kg measured upto 10 hrs; type: ADME, organism-based; conditions: in vivo
[18] = Microsomal stability in human liver microsome assessed as half life; type: ADME, microsomes; conditions: for half-life: liver microsomes
[19] = Half life in rat at 5 mg/kg, po or 1 mg/kg, iv measured upto 10 hrs; type: ADME, organism-based; conditions: in vivo
[20] = target: hERG (KCNH2) (Homo sapiens, UniProt Q12809); assay: Inhibition of hERG at 10 uM relative to control; type: toxicity
Sequence of hERG (KCNH2) (Q12809 whole entry): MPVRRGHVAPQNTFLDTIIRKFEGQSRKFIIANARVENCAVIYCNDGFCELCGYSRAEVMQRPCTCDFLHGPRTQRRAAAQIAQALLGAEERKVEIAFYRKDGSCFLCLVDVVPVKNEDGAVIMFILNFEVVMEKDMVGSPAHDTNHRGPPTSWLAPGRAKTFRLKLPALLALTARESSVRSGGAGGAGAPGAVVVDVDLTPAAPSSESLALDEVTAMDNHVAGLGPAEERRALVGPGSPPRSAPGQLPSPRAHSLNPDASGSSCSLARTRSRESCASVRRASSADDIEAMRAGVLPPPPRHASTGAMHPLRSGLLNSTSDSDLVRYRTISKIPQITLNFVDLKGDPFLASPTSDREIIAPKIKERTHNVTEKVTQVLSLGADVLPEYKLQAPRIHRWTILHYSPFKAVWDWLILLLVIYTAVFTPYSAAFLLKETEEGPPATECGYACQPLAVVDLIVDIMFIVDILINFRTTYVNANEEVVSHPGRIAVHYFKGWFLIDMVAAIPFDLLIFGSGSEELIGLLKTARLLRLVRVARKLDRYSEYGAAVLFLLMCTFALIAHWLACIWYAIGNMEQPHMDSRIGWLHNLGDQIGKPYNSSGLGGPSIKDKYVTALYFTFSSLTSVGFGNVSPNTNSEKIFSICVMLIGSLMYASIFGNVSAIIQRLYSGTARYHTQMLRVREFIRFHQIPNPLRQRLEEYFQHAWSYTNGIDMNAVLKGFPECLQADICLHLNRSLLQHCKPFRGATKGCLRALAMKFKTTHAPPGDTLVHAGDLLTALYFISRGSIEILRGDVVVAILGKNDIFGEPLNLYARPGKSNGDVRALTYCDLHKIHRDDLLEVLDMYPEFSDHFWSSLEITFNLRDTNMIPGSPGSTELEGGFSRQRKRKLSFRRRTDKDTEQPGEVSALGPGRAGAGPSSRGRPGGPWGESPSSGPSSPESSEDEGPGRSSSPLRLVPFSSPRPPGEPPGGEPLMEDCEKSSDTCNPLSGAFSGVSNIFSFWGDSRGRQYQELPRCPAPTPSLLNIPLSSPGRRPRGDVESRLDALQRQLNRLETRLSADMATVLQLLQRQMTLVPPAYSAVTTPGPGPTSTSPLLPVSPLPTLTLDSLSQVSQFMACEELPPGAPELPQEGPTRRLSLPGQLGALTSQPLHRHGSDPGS

[21] = Drug concentration in C57BL/6J mouse plasma at 10 mg/kg, po measured at 30 mins; type: ADME, organism-based
[22] = Dissociation constant, pKa of compound; type: physicochemical
[23] = test system: Mus musculus; assay: Antidiabetic activity against po dosed db/db mouse model of type 2 diabetes assessed as reduction in blood glucose level administered for 15 days by OGTT test; type: functional, organism-based; conditions: dose 10-15 mg/kg, time 15.0 day
[24] = target: Voltage-gated inwardly rectifying potassium channel KCNH2 (Homo sapiens, UniProt Q12809); assay: Inhibition of hERG; type: toxicity
Sequence of Voltage-gated inwardly rectifying potassium channel KCNH2 (Q12809 whole entry): as above

T1 sequence (P08684 whole entry): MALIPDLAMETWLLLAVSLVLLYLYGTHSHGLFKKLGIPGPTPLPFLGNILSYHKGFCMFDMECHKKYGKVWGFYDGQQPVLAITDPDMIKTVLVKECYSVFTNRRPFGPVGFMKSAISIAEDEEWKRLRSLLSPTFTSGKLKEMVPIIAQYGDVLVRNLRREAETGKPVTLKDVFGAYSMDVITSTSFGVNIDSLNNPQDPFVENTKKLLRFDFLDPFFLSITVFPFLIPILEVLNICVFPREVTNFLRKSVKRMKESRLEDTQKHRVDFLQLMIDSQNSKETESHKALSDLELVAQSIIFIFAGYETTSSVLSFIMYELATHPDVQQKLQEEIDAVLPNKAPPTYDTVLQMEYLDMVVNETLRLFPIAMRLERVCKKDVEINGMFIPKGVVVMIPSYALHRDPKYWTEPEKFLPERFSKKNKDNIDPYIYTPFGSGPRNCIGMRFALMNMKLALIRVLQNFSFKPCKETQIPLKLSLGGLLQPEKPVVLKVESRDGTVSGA

SMILES | IC50 [2] [µM] | half-life [3] [h] | IC50 [5] [µM] | EC50 [6] [µM] | clearance [11] [L/h/kg] | EC50 [15] [µM] | IC50 [16] [µM] | half-life [18] [h] | inhibition at 10 µM [20] [%] | also measured
COc1ccc(C(=O)C2CCN(C(=O)c3ccc(C(=O)N[C@H]4CCN(Cc5ccc(C#N)cc5)C[C@@H]4F)cn3)CC2)cc1 (relative stereo) | > 10 | 1.47 | 1.17 | 0.161 | 1.02 | 0.062 | > 10 | 1.9 | 69.2 | Vdss [1]: 2.2 L/kg; Activity [4]: Active; Activity [7]: Dose-Dependent Effect; Activity [8]: Active; Activity [9]: Active; IC50 [10]: > 20 µM; Activity [12]: Dose-Dependent Effect; AUC at 10 h [13]: 2.35 µg·h/mL; IC50 [14]: > 20 µM; bioavailability [17]: 55%; half-life [19]: 3.1 h; concentration at 0.5 h [21]: 0.638 µg/mL; pKa [22]: 4.9; Activity [23]: Dose-Dependent Effect
COc1ccc(C(=O)C2CCN(C(=O)c3ccc(C(=O)NC4CCN(Cc5ccc(C#N)cc5)CC4)cn3)CC2)cc1 | > 10 | – | 2.82 | 0.137 | 9 | 0.031 | > 10 | – | – | IC50 [24]: 4.7 µM; pKa [22]: 7.4
COc1ccc(C(=O)C2CCN(C(=O)c3ccc(C(=O)N(C)C4CCN(Cc5ccc(C#N)cc5)CC4)cn3)CC2)cc1 | – | – | 0.028 | – | 4.44 | 0.021 | – | – | – | –
COc1ccc(C(=O)C2CCN(C(=O)c3ccc(C(=O)N[C@H]4CCN(Cc5ccc(C#N)cc5)C[C@@H]4C)cn3)CC2)cc1 | – | – | 0.983 | 0.236 | 8.7 | 0.065 | – | – | – | –
COc1ccc(C(=O)C2CCN(C(=O)c3ccc(C(=O)NC4CCN(Cc5ccc(C#N)cc5)CC4(C)C)cn3)CC2)cc1 (centres undefined) | – | – | 0.39 | 0.598 | 2.4 | 0.032 | – | – | – | –
COc1ccc(C(=O)C2CCN(C(=O)c3ccc(C(=O)N[C@@H]4CCN(Cc5ccc(C#N)cc5)C[C@@H]4C)cn3)CC2)cc1 | 0.9 | 0.15 | 0.941 | 0.082 | – | 0.022 | 10 | 0.383 | 46.9 | –
COc1ccc(C(=O)C2CCN(C(=O)c3ccc(C(=O)NC4CCN(Cc5ccc(C#N)cc5)CC4(F)F)cn3)CC2)cc1 (centres undefined) | > 10 | 2.48 | 0.256 | 0.05 | – | 0.028 | > 10 | 1.23 | 65 | pKa [22]: 2.5
COc1ccc(C(=O)C2CCN(C(=O)c3cc(C)c(C(=O)NC4CCN(Cc5ccc(C#N)cc5)CC4)cn3)CC2)cc1 | > 10 | 0.7 | 1.46 | 0.11 | 2.28 | 0.022 | > 10 | 1.72 | 59.8 | –
N#Cc1ccc(CN2CC[C@H](NC(=O)c3ccc(C(=O)N4CCC(C(=O)c5ccc(-n6cccn6)cc5)CC4)nc3)[C@@H](F)C2)cc1 | – | 1.75 | 0.887 | 0.087 | 1.14 | 0.029 | – | – | 98.4 | Stability ([18]; microsomes): Stable
COCCN(C(=O)c1ccc(C(=O)N2CCC(C(=O)c3ccc(OC)cc3)CC2)nc1)C1CCN(Cc2ccc(C#N)cc2)CC1 | – | – | 1.47 | 0.654 | – | 0.078 | – | – | 26.5 | –
COc1ccc(C(=O)C2CCN(C(=O)c3cc(C)c(C(=O)NC4CCN(Cc5ccc(OC)c(F)c5)CC4)cn3)CC2)cc1 | – | 0.9 | 0.976 | 0.027 | 1.98 | 0.014 | – | 1.12 | 58.4 | –
COc1ccc(C(=O)C2CCN(C(=O)c3ccc(C(=O)N[C@H]4CCN(Cc5ccc(C#N)cc5)[C@H](C(F)(F)F)C4)cn3)CC2)cc1 | – | – | – | – | – | 0.464 | – | – | – | –
COc1ccc(C(=O)C2CCN(C(=O)c3ccc(C(=O)N[C@@H]4CCN(Cc5ccc(C#N)cc5)C[C@@H]4C(F)(F)F)cn3)CC2)cc1 | – | – | 0.466 | 0.143 | 3.72 | 0.017 | – | – | – | –
COc1ccc(C(=O)C2CCN(C(=O)c3ccc(C(=O)N[C@@H]4CCN(Cc5ccc(C#N)cc5)C[C@@H]4F)cn3)CC2)cc1 | > 10 | 4.95 | 0.8 | 0.193 | 1.98 | 0.047 | > 10 | 8.23 | 67.4 | pKa [22]: 4.9
COc1ccc(CN2CCC(NC(=O)c3cnc(C(=O)N4CCC(C(=O)c5ccc(OC)cc5)CC4)cc3C)CC2)cc1 | – | 0.917 | 3.37 | 0.084 | 2.4 | 0.025 | – | 4.72 | 62.5 | –
COc1ccc(C(=O)C2CCN(C(=O)c3cc(C(F)(F)F)c(C(=O)NC4CCN(Cc5ccc(C#N)cc5)CC4)cn3)CC2)cc1 | 2.8 | 0.733 | 0.456 | 0.028 | 2.1 | 0.01 | > 10 | 1.48 | – | –
N#Cc1ccc(CN2CC[C@H](NC(=O)c3ccc(C(=O)N4CCC(C(=O)c5ccc(N6CCOCC6)cc5)CC4)nc3)[C@@H](F)C2)cc1 | – | 1.22 | 2.69 | 0.217 | – | 0.07 | – | 2.63 | – | –
COc1ccc(C(=O)C2CCN(C(=O)c3cc(F)c(C(=O)NC4CCN(Cc5ccc(C#N)cc5)CC4)cn3)CC2)cc1 | – | – | 0.031 | 0.009 | – | 0.001 | – | – | – | –

Reference: ChEMBL document CHEMBL5375990, “Optimization of Pharmacokinetic and In Vitro Safety Profile of a Series of Pyridine Diamide Indirect AMPK Activators” (J Med Chem, 2023)
